# Reference: patent publication US20140024663A1, “ATB(0,+) AMINO ACID TRANSPORTER AS A DRUG TARGET FOR TREATMENT OF ESTROGEN RECEPTOR-POSITIVE BREAST CANCER” (GEORGIA HEALTH SCIENCES UNIVERSITY RESEARCH INSTITUTE, INC., priority 2012, published 2014)
# Assays:
# Type in all cases: cell-based, human
# [1] = test system: MCF7 cells; experiment: Western blot of lamin A degradation product (caspase-6 substrate); settings: MCF7, α-MT 2.5 mM, 24, 48 or 72 h
# Experimental: (§1) FIGS. 9A to 9D. Influence of α-MT on mTOR activity In FIG. 9A, MCF7 and MB231 cells were treated without or with α-MT (2.5 mM) for 24 h, 48 h, or 72 h, and then the cell lysates were used for western blot. Influence of α-MT with or without 3-MA on cell death. In FIG. 9B, MCF7, MB231, and MCF10A cells were treated for 48 h without or with α-MT (2.5 mM), 3-MA (10 mM), or α-MT (2.5 mM) plus 3-MA (10 mM), and then analyzed for cell death by propidium iodide (PI) staining and FACS-based cell cycle analysis. In FIG. 9C, MCF7 cells were treated for 48 h without or with α-MT (2.5 mM), 3-MA (10 mM), or α-MT (2.5 mM) plus 3-MA (10 mM), and then analyzed for apoptotic cell death by annexin V labeling. In FIG. 9D, MCF7 and MB231 cells were treated without or with 2.5 mM α-MT for 24 h, 48 h, or 72 h. Cell lysates were then used for western blot analysis of lamin A degradation product using an antibody that recognizes specifically the proteolytic cleavage product. β-Actin was used as an internal control.
# [2] = test system: MB231 cells; experiment: as above; settings: SLC6A14-negative MB231 cells, α-MT 2.5 mM, identical conditions
# Experimental: as §1
# [3] = test system: MCF7 cells; experiment: Apoptotic cell death by annexin V labeling; settings: MCF7, single agent (α-MT 2.5 mM or 3-MA 10 mM), 48 h
# Experimental: as §1
# Apoptosis assay. Fluorescence-activated cell sorting (FACS) was used to monitor cell death. MCF7 cells were treated with or without α-MT, 3-MA, or α-MT plus 3-MA. Control and treated cells were then fixed in 50% ethanol, treated with 0.1% sodium citrate, 1 mg/ml RNase A, and 50 μg/ml propidium iodide, and then subjected to FACS analysis (FACS Caliber, Becton Dickinson). FITC-labeled annexin V was used to differentiate apoptotic cell death from necrotic cell death.
# [4] = test system: MB231 cells; experiment: Analysis of autophagy (LC3 localization); settings: MB231, α-MT 2.5 mM, 48 h
# Experimental: (§2) FIGS. 6A to 6C. Effects of SLC6A14 blockade with α-MT in breast cancer cells. In FIG. 6A, MCF10A (a non-malignant mammary epithelial cell line), MCF7 (an ER-positive breast cancer cell line), and MB231 (an ER-negative breast cancer cell line) cells were treated with or without 2.5 mM α-MT for 24, 48, or 72 h and then used for analysis of asparagine synthetase (ASNS) and CHOP mRNA levels. In FIG. 6B, MCF7, MB231 and MCF10A cells were treated with or without 2.5 mM α-MT for 48 h and then used for immunocytochemical analysis of the constitutively expressed LC-3. In FIG. 6C, MCF7 cells were treated with (“b” and “c”) or without (“a”) α-MT (2.5 mM) for 48 h and then used for electron microscopy. […]
# (§3) Analysis of autophagy. Autophagy was analyzed as described previously (Periyasamy-Thandavan et al., 2010, Autophagy; 6:19-35; and Samaddar et al., 2008, Mol Cancer Ther; 7:2977-2987) by monitoring the localization pattern of constitutively expressed LC3 as well as that of ectopically expressed GFP-LC3. […] At the end of the treatment, cells were fixed with 4% paraformaldehyde and examined by fluorescence microscopy to count the number of cells with punctate GFP-LC3. Autophagosomal proteolysis was quantified as described previously (Periyasamy-Thandavan et al., 2010, Autophagy; 6:19-35). […]
# [5] = test system: MCF10A cells; experiment: Analysis of autophagy (LC3 localization); settings: α-MT 2.5 mM, 48 h
# Experimental: as §2, §3
structure (smiles),measurement,setting,value
"CC(N)(Cc1c[nH]c2ccccc12)C(=O)O (racemic) [α-MT, α-methyl-DL-tryptophan]",apoptotic cell death shown by Lamin A cleavage,[1],cleavage of Lamin A
same,apoptosis (Lamin A cleavage),[2],no evidence of apoptosis
same,apoptotic cell death by annexin V labeling,[3],induced apoptotic cell death
same,autophagy (LC3 localization),[4],did not undergo autophagy
same,autophagy (LC3 localization),[5],did not undergo autophagy
